The structures appear in SMILES notation.

The test addresses T1, human Orexin-2 receptor (Homo sapiens, UniProt O43614).
T1 construct: expressed in transfected cells; host or cells: HEK293 cells (transient transfection, Genejuice); membranes
T1 sequence (O43614 1-444): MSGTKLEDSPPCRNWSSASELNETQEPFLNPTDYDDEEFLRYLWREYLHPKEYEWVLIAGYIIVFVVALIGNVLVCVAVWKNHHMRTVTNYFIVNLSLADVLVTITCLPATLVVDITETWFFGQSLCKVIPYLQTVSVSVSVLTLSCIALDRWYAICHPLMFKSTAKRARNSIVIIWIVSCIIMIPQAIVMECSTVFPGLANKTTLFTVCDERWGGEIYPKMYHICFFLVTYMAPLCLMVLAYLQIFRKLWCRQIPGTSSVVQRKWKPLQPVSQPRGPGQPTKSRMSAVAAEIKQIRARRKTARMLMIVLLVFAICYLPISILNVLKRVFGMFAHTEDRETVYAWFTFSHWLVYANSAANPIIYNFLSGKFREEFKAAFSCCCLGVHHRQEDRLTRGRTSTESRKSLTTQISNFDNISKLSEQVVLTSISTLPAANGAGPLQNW
The test is described as follows: 3H-EMPA radioligand binding assay. The following applies: 3H-EMPA displacement, membranes of HEK293 cells transfected with human Orexin-2 receptor; KI by Cheng-Prussoff; read-out: OX2 pKi ave (converted). Summed up: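 Membranes from HEK293 cells transiently transfected with human orexin-2 receptor cDNA, assayed with [3H]EMPA. Bound ligand collected on PEI-treated GF/B filters and counted by scintillation; IC50 from inhibition curves, Ki by Cheng-Prusoff.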
Regarding `COc1ccc(N2C(=O)N(Cc3c(F)cccc3Cl)c3c(F)cccc3S2(=O)=O)cn1` [Example 123, 4-(2-Chloro-6-fluorobenzyl)-5-fluoro-2-(6-methoxypyridin-3-yl)-2H-1,2,4-benzothiadiazin-3(4H)-one 1,1-dioxide], the Ki is 43.7 nM.
As for `O=C1N(Cc2c(F)cc(F)cc2F)c2ccccc2S(=O)(=O)N1c1ccc2ncsc2c1` [Example 124, 2-(1,3-Benzothiazol-6-yl)-4-(2,4,6-trifluorobenzyl)-2H-1,2,4-benzothiadiazin-3(4H)-one 1,1-dioxide], the figure is 5.01 nM; as for `Cn1nc(CN2C(=O)N(Cc3c(F)cccc3F)c3ccccc3S2(=O)=O)c2ccccc21` [Example 125, 4-(2,6-Difluorobenzyl)-2-[(1-methyl-1H-indazol-3-yl)methyl]-2H-1,2,4-benzothiadiazin-3(4H)-one 1,1-dioxide], 38 nM.
As for `O=C1N(Cc2c(F)cccc2F)c2ccccc2S(=O)(=O)N1Cc1cc(=O)[nH]c2ccccc12` [Example 126, 4-(2,6-Difluorobenzyl)-2-[(2-oxo-1,2-dihydroquinolin-4-yl)methyl]-2H-1,2,4-benzothiadiazin-3(4H)-one 1,1-dioxide], the figure is 35.5 nM; as for `Cc1cc(CN2C(=O)N(Cc3c(F)cccc3Cl)c3ccccc3S2(=O)=O)n(C)n1` [Example 127, 4-(2-Chloro-6-fluorobenzyl)-2-[(1,3-dimethyl-1H-pyrazol-5-yl)methyl]-2H-1,2,4-benzothiadiazin-3(4H)-one 1,1-dioxide], 58.9 nM; as for `O=C1N(Cc2c(F)cccc2Cl)c2ccccc2S(=O)(=O)N1Cc1ccccn1` [Example 128, 4-(2-Chloro-6-fluorobenzyl)-2-(pyridin-2-ylmethyl)-2H-1,2,4-benzothiadiazin-3(4H)-one 1,1-dioxide], 79.4 nM.
As for `Cc1cc(CN2C(=O)N(Cc3c(F)cccc3Cl)c3ccccc3S2(=O)=O)no1` [Example 129, 4-(2-Chloro-6-fluorobenzyl)-2-[(5-methyl-1,2-oxazol-3-yl)methyl]-2H-1,2,4-benzothiadiazin-3(4H)-one 1,1-dioxide], the Ki was 115 nM.
As for `COc1ccc(N2C(=O)N(Cc3ccccc3C)c3c(F)cccc3S2(=O)=O)cn1` [Example 130, 5-Fluoro-2-(6-methoxypyridin-3-yl)-4-(2-methylbenzyl)-2H-1,2,4-benzothiadiazin-3(4H)-one 1,1-dioxide], the figure is 87.1 nM; as for `Cn1ccnc1CN1C(=O)N(Cc2c(F)cccc2F)c2ccccc2S1(=O)=O` [Example 131, 4-(2,6-Difluorobenzyl)-2-[(1-methyl-1H-imidazol-2-yl)methyl]-2H-1,2,4-benzothiadiazin-3(4H)-one 1,1-dioxide], 295 nM; as for `Cn1cc(N2C(=O)N(Cc3c(F)cccc3Cl)c3ccccc3S2(=O)=O)ccc1=O` [Example 132, 4-(2-Chloro-6-fluorobenzyl)-2-(1-methyl-6-oxo-1,6-dihydropyridin-3-yl)-2H-1,2,4-benzothiadiazin-3(4H)-one 1,1-dioxide], 302 nM.
As for `CCN1CCCC(N2C(=O)N(Cc3c(F)cccc3F)c3ccccc3S2(=O)=O)C1` (stereo not shown) [Example 133, 4-(2,6-Difluorobenzyl)-2-(1-ethylpiperidin-3-yl)-2H-1,2,4-benzothiadiazin-3(4H)-one 1,1-dioxide], the Ki is 661 nM.
As for `Cc1cc(CN2C(=O)N(Cc3ccc(Cl)cc3F)c3ccccc3S2(=O)=O)n(C)n1` [Example 134, 4-(4-Chloro-2-fluorobenzyl)-2-[(1,3-dimethyl-1H-pyrazol-5-yl)methyl]-2H-1,2,4-benzothiadiazin-3(4H)-one 1,1-dioxide], the figure is 39.8 nM; as for `COc1ccc(N2C(=O)N(Cc3c(F)cc(C)cc3Cl)c3ccccc3S2(=O)=O)cn1` [Example 135, 4-(2-Chloro-6-fluoro-4-methylbenzyl)-2-(6-methoxypyridin-3-yl)-2H-1,2,4-benzothiadiazin-3(4H)-one 1,1-dioxide], 13.8 nM.

Source of the values: US10316028B2, “Orexin receptor antagonists” (Heptares Therapeutics Limited, priority 2012, dated 2019).
